Reference: patent publication US20220340679A1, “CO-INHIBITION OF CD47/SIRPalpha BINDING AND NEDD8-ACTIVATING ENZYME E1 REGULATORY SUBUNIT FOR THE TREATMENT OF CANCER” (Gilead Sciences, Inc., priority 2021, published 2022)
“Also recorded” adds a separate entry of the source.

Test system: U937 AML cells
Assay: AML xenograft model: luciferase-expressing U937 tumor cells in NSG mice, in-vivo bioluminescent imaging
Conditions: U937 i.v., azacitidine 7.5 mg/kg QD 5 days i.p., NAE1 SMI 120 mg/kg QD 5 days on, 2 days rest, magrolimab 250 μg QD
Experimental: FIG. 3 illustrates that NAE1 inhibition in combination with CD47 blockade elicits robust anti-tumor efficacy in an AML xenograft model. Luciferase-expressing U937 tumor cell were transferred to NSG mice by intravenous injection. On day 5, mice were randomized into cohorts and treated with Vehicle [20% (2-Hydroxypropyl)-β-cyclodextrin], azacitidine (7.5 mg/kg QD for 5 days), or NAE1 small molecule inhibitor (120 mg/kg QD for 5 days followed by 2 days/rest) by intraperitoneal injection. Magrolimab was administered 48 hours post chemo treatment (250 μg QD for the entire study) as a single agent or in combination. Tumor growth was monitored using in-vivo bioluminescent imaging and the resulting signal was reported as total flux.
To evaluate, if the combination of NAE1 SMI with magrolimab could increase the elimination of leukemia cells in vivo, a treatment study was conducted in mice transplanted with U937 AML cells. In addition to NAE1 SMI, azacitidine, a hypomethylating and chemotherapeutic agent indicated for AML was also included into the study, since azacitidine had previously been established to enhance elimination of AML cells when combined with magrolimab (Chao, et al., Front Oncol (2020) 9:1380). […]

Nc1ncn([C@@H]2O[C@H](CO)[C@@H](O)[C@H]2O)c(=O)n1 [azacitidine, 5-azacytidine, reference compound]
tumor growth / cancer remission (result in words): did initially slow tumor growth compared to vehicle control but failed to stop cancer progression

B1: magrolimab: anti-CD47 antibody (antibody, chains of the INN, looked up, V domains shown)
VH: QVQLVQSGAEVKKPGASVKVSCKASGYTFTNYNMHWVRQAPGQRLEWMGTIYPGNDDTSYNQKFKDRVTITADTSASTAYMELSSLRSEDTAVYYCARGGYRAMDYWGQGTLVTVSS
VL: DIVMTQSPLSLPVTPGEPASISCRSSQSIVYSNGNTYLGWYLQKPGQSPQLLIYKVSNRFSGVPDRFSGSGSGTDFTLKISRVEAEDVGVYYCFQGSHVPYTFGQGTKLEIK
tumor growth / cancer remission (result in words): did initially slow tumor growth compared to vehicle control but failed to stop cancer progression; also recorded: modest
